Test results published in PubChem BioAssay AID1259407 (Chemical Carcinogenesis Research Information System (CCRIS), 2018).
Active and inactive are the calls of the source. The rule behind the calls is not given here. Where a SMILES comes first, the peptide text is derived from it. [ ]: non-standard residue; d: D form. pGlu = O=C1CC[C@@H](C(=O)O)N1; Thz = O=C(O)[C@@H]1CSCN1

Tested on: CCRIS mutagenicity, Ames/micronucleus/aberration tests
Assay: CCRIS mutagenicity studies
[1] = Test System: AMES SALMONELLA TYPHIMURIUM, Strain/Indicator: TA98, Metabolic Activation: NONE, Method: STANDARD PLATE
[2] = Test System: AMES SALMONELLA TYPHIMURIUM, Strain/Indicator: TA98, Metabolic Activation: RAT, LIVER, S-9, AROCLOR 1254, Method: STANDARD PLATE
[3] = Test System: AMES SALMONELLA TYPHIMURIUM, Strain/Indicator: TA100, Metabolic Activation: NONE, Method: STANDARD PLATE
[4] = Test System: AMES SALMONELLA TYPHIMURIUM, Strain/Indicator: TA100, Metabolic Activation: RAT, LIVER, S-9, AROCLOR 1254, Method: STANDARD PLATE
[5] = Test System: AMES SALMONELLA TYPHIMURIUM, Strain/Indicator: TA1535, Metabolic Activation: NONE, Method: PREINCUBATION
[6] = Test System: AMES SALMONELLA TYPHIMURIUM, Strain/Indicator: TA1537, Metabolic Activation: NONE, Method: PREINCUBATION
[7] = Test System: MOUSE LYMPHOMA, Strain/Indicator: L5178Y (TK+/TK-), Metabolic Activation: NONE, Method: SUSPENSION/PLATE
[8] = Test System: MOUSE LYMPHOMA, Strain/Indicator: L5178Y (TK+/TK-), Metabolic Activation: RAT, LIVER, S-9, AROCLOR 1254, Method: SUSPENSION/PLATE
[9] = Test System: AMES SALMONELLA TYPHIMURIUM, Strain/Indicator: TA1535, Metabolic Activation: NONE, Method: STANDARD PLATE
[10] = Test System: AMES SALMONELLA TYPHIMURIUM, Strain/Indicator: TA1535, Metabolic Activation: RAT, LIVER, S-9, AROCLOR 1254, Method: STANDARD PLATE
[11] = Test System: AMES SALMONELLA TYPHIMURIUM, Strain/Indicator: TA1537, Metabolic Activation: NONE, Method: STANDARD PLATE
[12] = Test System: AMES SALMONELLA TYPHIMURIUM, Strain/Indicator: TA1537, Metabolic Activation: RAT, LIVER, S-9, AROCLOR 1254, Method: STANDARD PLATE
[13] = Test System: AMES SALMONELLA TYPHIMURIUM, Strain/Indicator: TA1538, Metabolic Activation: NONE, Method: STANDARD PLATE
[14] = Test System: AMES SALMONELLA TYPHIMURIUM, Strain/Indicator: TA1538, Metabolic Activation: RAT, LIVER, S-9, AROCLOR 1254, Method: STANDARD PLATE

`Cc1nc2c(c3[nH]c4ccccc4c13)C(=O)C(N1CC1)=CC2=O` was tested, and the mutagenic call (Test System: AMES SALMONELLA TYPHIMURIUM, Strain/Indicator: TA97, Metabolic Activation: NONE, Method: STANDARD PLATE) was “active; positive”, the mutagenic call (Test System: AMES SALMONELLA TYPHIMURIUM, Strain/Indicator: TA97, Metabolic Activation: RAT, LIVER, S-9, AROCLOR 1254, Method: STANDARD PLATE) was “active; positive” and the mutagenic call [1] was “active; positive”. The mutagenic call [2] was “active; positive”, the mutagenic call [3] was “active; positive” and the mutagenic call [4] was “active; positive”. The mutagenic call (Test System: AMES SALMONELLA TYPHIMURIUM, Strain/Indicator: TA102, Metabolic Activation: NONE, Method: STANDARD PLATE) was “active; positive” and the mutagenic call (Test System: AMES SALMONELLA TYPHIMURIUM, Strain/Indicator: TA102, Metabolic Activation: RAT, LIVER, S-9, AROCLOR 1254, Method: STANDARD PLATE) was “active; positive”.
In the case of `CCCCOC(=O)c1ccccc1C(=O)OCc1ccccc1`, the mutagenic call (End Point: IN VITRO CHROMOSOMAL ABERRATIONS, Test System: CHINESE HAMSTER OVARY CELLS, Metabolic Activation: NONE) is reported as “inactive; negative”, the mutagenic call (End Point: IN VITRO CHROMOSOMAL ABERRATIONS, Test System: CHINESE HAMSTER OVARY CELLS, Metabolic Activation: RAT, LIVER, S-9, AROCLOR 1254) is reported as “inactive; negative” and the mutagenic call (Test System: AMES SALMONELLA TYPHIMURIUM, Strain/Indicator: TA98, Metabolic Activation: HAMSTER, LIVER, S-9, AROCLOR 1254 (10%), Method: PREINCUBATION) is reported as “inactive; negative”. The mutagenic call (Test System: AMES SALMONELLA TYPHIMURIUM, Strain/Indicator: TA98, Metabolic Activation: NONE, Method: PREINCUBATION) was “inactive; negative”, the mutagenic call (Test System: AMES SALMONELLA TYPHIMURIUM, Strain/Indicator: TA98, Metabolic Activation: RAT, LIVER, S-9, AROCLOR 1254 (10%), Method: PREINCUBATION) was “inactive; negative” and the mutagenic call (Test System: AMES SALMONELLA TYPHIMURIUM, Strain/Indicator: TA100, Metabolic Activation: HAMSTER, LIVER, S-9, AROCLOR 1254 (10%), Method: PREINCUBATION) was “inactive; negative”. For the same compound, the mutagenic call (Test System: AMES SALMONELLA TYPHIMURIUM, Strain/Indicator: TA100, Metabolic Activation: NONE, Method: PREINCUBATION) was “inactive; negative”, the mutagenic call (Test System: AMES SALMONELLA TYPHIMURIUM, Strain/Indicator: TA100, Metabolic Activation: RAT, LIVER, S-9, AROCLOR 1254 (10%), Method: PREINCUBATION) was “inactive; negative” and the mutagenic call (Test System: AMES SALMONELLA TYPHIMURIUM, Strain/Indicator: TA1535, Metabolic Activation: HAMSTER, LIVER, S-9, AROCLOR 1254 (10%), Method: PREINCUBATION) was “inactive; negative”. The mutagenic call [5] was “inactive; negative”, the mutagenic call (Test System: AMES SALMONELLA TYPHIMURIUM, Strain/Indicator: TA1535, Metabolic Activation: RAT, LIVER, S-9, AROCLOR 1254 (10%), Method: PREINCUBATION) was “inactive; negative” and the mutagenic call (Test System: AMES SALMONELLA TYPHIMURIUM, Strain/Indicator: TA1537, Metabolic Activation: HAMSTER, LIVER, S-9, AROCLOR 1254 (10%), Method: PREINCUBATION) was “inactive; negative”. The mutagenic call [6] was “inactive; negative”, the mutagenic call (Test System: AMES SALMONELLA TYPHIMURIUM, Strain/Indicator: TA1537, Metabolic Activation: RAT, LIVER, S-9, AROCLOR 1254 (10%), Method: PREINCUBATION) was “inactive; negative” and the mutagenic call [7] was “inactive; negative”. The mutagenic call (Test System: MOUSE LYMPHOMA, Strain/Indicator: L5178Y (TK+/TK-), Metabolic Activation: RAT LIVER S-9, Method: SUSPENSION/PLATE) was “active; positive” and the mutagenic call [8] was “inactive; negative”.
With `C[n+]1c2ccccc2cc2c(N)cccc21` the mutagenic call [5] was “inactive; negative”, the mutagenic call (Test System: AMES SALMONELLA TYPHIMURIUM, Strain/Indicator: TA1535, Metabolic Activation: RAT, LIVER, S-9, TETRACHLOROBIPHENYL, Method: PREINCUBATION) was “inactive; negative” and the mutagenic call [6] was “active; positive”. The mutagenic call (Test System: AMES SALMONELLA TYPHIMURIUM, Strain/Indicator: TA1537, Metabolic Activation: RAT, LIVER, S-9, TETRACHLOROBIPHENYL, Method: PREINCUBATION) was “active; positive”, the mutagenic call (Test System: AMES SALMONELLA TYPHIMURIUM, Strain/Indicator: TA1538, Metabolic Activation: NONE, Method: PREINCUBATION) was “inactive; negative” and the mutagenic call (Test System: AMES SALMONELLA TYPHIMURIUM, Strain/Indicator: TA1538, Metabolic Activation: RAT, LIVER, S-9, TETRACHLOROBIPHENYL, Method: PREINCUBATION) was “inactive; negative”. The mutagenic call (Test System: AMES SALMONELLA TYPHIMURIUM, Strain/Indicator: TA1977, Metabolic Activation: NONE, Method: PREINCUBATION) was “active; positive”.
For `O=C1CC[C@@H](C(=O)N2CSC[C@H]2C(=O)O)N1` ([pGlu]-[Thz]-OH), the mutagenic call [1] was “inactive; negative”, the mutagenic call [2] was “inactive; negative” and the mutagenic call [3] was “inactive; negative”. The mutagenic call [4] was “inactive; negative”, the mutagenic call [9] was “inactive; negative” and the mutagenic call [10] was “inactive; negative”. For the same compound, the mutagenic call [11] was “inactive; negative”, the mutagenic call [12] was “inactive; negative” and the mutagenic call [13] was “inactive; negative”. For the same compound, the mutagenic call [14] was “inactive; negative”, the mutagenic call [7] was “inactive; negative” and the mutagenic call [8] was “inactive; negative”. The mutagenic call (Test System: UDS HELA CELLS, Strain/Indicator: THY INCORP, Metabolic Activation: NONE, Method: AUTORADIOGRAPHY) was “inactive; negative” and the mutagenic call (Test System: UDS HELA CELLS, Strain/Indicator: THY INCORP, Metabolic Activation: RAT, LIVER, S-9, AROCLOR 1254, Method: AUTORADIOGRAPHY) was “inactive; negative”.
`C=C(C)C(=O)OC(C)(C)C` was tested, and the mutagenic call [1] was “inactive; negative”, the mutagenic call [2] was “inactive; negative” and the mutagenic call (Test System: AMES SALMONELLA TYPHIMURIUM, Strain/Indicator: TA98, Metabolic Activation: RAT, LIVER, S-9, SODIUM PHENOBARBITAL, Method: STANDARD PLATE) was “inactive; negative”. For the same compound, the mutagenic call [3] was “inactive; negative”, the mutagenic call [4] was “inactive; negative” and the mutagenic call (Test System: AMES SALMONELLA TYPHIMURIUM, Strain/Indicator: TA100, Metabolic Activation: RAT, LIVER, S-9, SODIUM PHENOBARBITAL, Method: STANDARD PLATE) was “inactive; negative”. The mutagenic call [9] was “inactive; negative”, the mutagenic call [10] was “inactive; negative” and the mutagenic call (Test System: AMES SALMONELLA TYPHIMURIUM, Strain/Indicator: TA1535, Metabolic Activation: RAT, LIVER, S-9, SODIUM PHENOBARBITAL, Method: STANDARD PLATE) was “inactive; negative”. The mutagenic call [11] was “inactive; negative”, the mutagenic call [12] was “inactive; negative” and the mutagenic call (Test System: AMES SALMONELLA TYPHIMURIUM, Strain/Indicator: TA1537, Metabolic Activation: RAT, LIVER, S-9, SODIUM PHENOBARBITAL, Method: STANDARD PLATE) was “inactive; negative”. For the same compound, the mutagenic call [13] was “inactive; negative”, the mutagenic call [14] was “inactive; negative” and the mutagenic call (Test System: AMES SALMONELLA TYPHIMURIUM, Strain/Indicator: TA1538, Metabolic Activation: RAT, LIVER, S-9, SODIUM PHENOBARBITAL, Method: STANDARD PLATE) was “inactive; negative”.
`O=C(CCNNC(=O)c1ccncc1)NCc1ccccc1` was tested, and the mutagenic call [1] was “inactive; negative”, the mutagenic call [2] was “inactive; negative” and the mutagenic call [3] was “active; positive”. The mutagenic call [4] was “active; positive”, the mutagenic call [9] was “active; positive” and the mutagenic call [10] was “active; positive”. The mutagenic call [11] was “inactive; negative” and the mutagenic call [12] was “inactive; negative”.
In the case of `O=C([O-])c1ccc2ccccc2c1.O=C([O-])c1ccc2ccccc2c1.[Pb+2]`, the mutagenic call [7] is reported as “active; positive. reevaluation of results: equivocal”.
For `CN(C)CCCNc1c2ccccc2nc2c(F)ccc([N+](=O)[O-])c12`, the mutagenic call [1] was “active; positive” and the mutagenic call [3] was “active; positive”.
